# Data: PubChem BioAssay (NCI)
#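 Tested at 5 concentrations; 48 h exposure; 96-well plates; endpoints linearly interpolated, else capped at highest concentration. GI50 marks 50% less growth. The concentration for full growth arrest is given as TGI.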
# Key:
# Assay in all cases: inhibition of tumour cell growth, NCI panel, 48 h
# MDA-MB-435 = system: MDA-MB-435
# MDA-MB-231 breast = system: MDA-MB-231 breast
# SNB-75 CNS = system: SNB-75 CNS
# 786-0 renal = system: 786-0 renal
# MALME-3M melanoma = system: MALME-3M melanoma
# COLO 205 colon = system: COLO 205 colon
# SK-MEL-2 melanoma = system: SK-MEL-2 melanoma
# UACC-257 melanoma = system: UACC-257 melanoma
# SK-OV-3 ovarian = system: SK-OV-3 ovarian
# T-47D breast = system: T-47D breast
# SNB-19 CNS = system: SNB-19 CNS
# MOLT-4 leukemia = system: MOLT-4 leukemia
# OVCAR-8 ovarian = system: OVCAR-8 ovarian
# SW-620 colon = system: SW-620 colon
# SR leukemia = system: SR leukemia
# SK-MEL-5 melanoma = system: SK-MEL-5 melanoma
Compound,TGI (MDA-MB-435) [µM],TGI (MDA-MB-231 breast) [µM],TGI (SNB-75 CNS) [µM],TGI (786-0 renal) [µM],TGI (MALME-3M melanoma) [µM],TGI (COLO 205 colon) [µM],TGI (SK-MEL-2 melanoma) [µM],TGI (UACC-257 melanoma) [µM],TGI (SK-OV-3 ovarian) [µM],TGI (T-47D breast) [µM],TGI (SNB-19 CNS) [µM],TGI (MOLT-4 leukemia) [µM],TGI (OVCAR-8 ovarian) [µM],TGI (SW-620 colon) [µM],TGI (SR leukemia) [µM],TGI (SK-MEL-5 melanoma) [µM],GI50 (SR leukemia) [µM]
N#Cc1ccccc1NC(=O)C(O)C(O)C(O)C(O)C=O (stereo unspecified),> 100,> 100,> 100,> 100,> 100,> 100,> 100,> 100,> 100,> 100,> 100,> 100,> 100,> 100,> 100,> 100,
CC(=O)O[C@H]1[C@@H](N2CCCCC2)C[C@H]2[C@@H]3CC=C4C[C@@H](N5CCCC5)CC[C@]4(C)[C@H]3CC[C@@]21C,> 100,> 100,> 100,> 100,52.4,> 100,> 100,87.7,> 100,> 100,> 100,> 100,> 100,> 100,8.96,> 100,
O=C(O)c1cc(-c2ccc3cc(O)c(O)cc3c2)ccc1O,> 12.5,> 12.5,> 12.5,> 12.5,> 12.5,> 12.5,> 12.5,> 12.5,> 12.5,> 12.5,> 12.5,> 12.5,> 12.5,> 12.5,> 12.5,> 12.5,
Cc1ccc2c(n1)C(=O)c1cc(C)c(C)cc1C2=O,> 100,> 100,73,> 100,> 100,> 100,> 100,> 100,> 100,> 100,> 100,> 100,> 100,> 100,85.1,79.1,
Clc1nc(NC23CC4CC(CC(C4)C2)C3)nc(NC23CC4CC(CC(C4)C2)C3)n1,> 100,> 76.3,> 78,> 100,> 100,> 100,57.6,> 100,> 100,> 89,> 100,> 100,> 100,> 100,> 100,> 100,
CCc1n[nH]c(=O)n1N,> 100,> 100,> 100,> 100,> 100,> 100,> 100,> 100,> 100,> 100,> 100,> 100,> 100,> 100,> 100,> 100,
NC(N)=NS(=O)(=O)c1ccc(NCc2cccc3c(=O)c4ccc(Cl)cc4oc23)cc1,> 25,> 15.6,8.64,> 12.9,> 19.2,> 20.3,> 16.7,> 25,> 17.3,> 23.7,22.2,> 20.1,> 13.7,> 16.8,> 25,> 16.5,
CCCCCCCCCCCCCCCCNc1nc(=O)n(C2CC(O)C(COP(=O)(O)OC3CC(n4cc(F)c(=O)[nH]c4=O)OC3CO)O2)cc1F (stereo unspecified),> 100,> 91.5,> 68.8,> 100,> 72.1,47.4,> 63.9,> 59,> 100,> 100,3.39,17.9,44.2,> 100,13.1,> 41.9,
CCC(=O)NC(NNS(=O)(=O)c1ccc(C)cc1)(C(F)(F)F)C(F)(F)F,48,> 100,> 100,> 100,> 100,> 100,> 100,> 100,> 100,> 100,> 100,> 100,> 100,> 100,> 100,> 100,
N=c1oc2ccccc2cc1C(=O)Nc1ccccn1,> 100,> 100,> 100,> 100,54,> 100,> 100,> 100,> 100,> 100,> 100,> 100,> 100,> 100,> 100,> 100,
O=C1NCC2(CCN(CC3COc4ccccc4O3)CC2)N1c1ccccc1 (stereo unspecified),> 100,> 100,> 100,> 100,> 100,> 100,> 100,> 100,> 100,> 100,> 100,> 100,> 100,> 100,> 100,> 100,
ON[C@@H]1C=C[C@H](n2cnc3c(NC4CC4)ncnc32)C1,> 100,> 100,> 100,> 100,> 100,> 100,> 100,> 100,> 100,> 100,> 100,> 100,> 100,> 100,> 100,> 100,
C#CCNC(CCCN=C(N)N)C(=O)O (stereo unspecified),> 100,> 100,> 100,> 100,> 100,> 100,> 100,> 100,> 100,> 100,> 100,> 100,> 100,> 100,> 100,> 100,
COc1cc(C)cc2c1C(=O)C(NC(C)=O)=CC2=O,31.3,> 100,> 100,> 100,> 100,> 100,> 100,> 100,> 100,> 100,> 100,88.7,> 100,> 100,> 100,> 100,
C=CCNC(=S)NC=C(C(N)=O)C(N)=O,> 100,> 100,> 100,> 100,> 100,> 100,> 100,> 100,> 100,> 100,> 100,> 100,> 100,> 100,> 100,> 100,
O=C(N/N=C\c1ccc([N+](=O)[O-])cc1)Nc1ccc2ccccc2c1,> 100,63.8,68.1,32.7,51.7,71.3,> 100,> 100,89.1,> 100,> 100,> 100,> 100,53.6,> 100,> 100,
CCSc1c2cc(OC)ccc2nc2ccc(OC)cc12,> 57.7,44.6,40.3,> 61,28.7,> 45.3,48.7,30.4,> 92.5,> 69.7,> 100,> 34.5,> 59.2,> 100,> 23.5,30.3,
C1=C(c2ccccc2)NC2=N[C@H]3CCCC[C@@H]3N2C1c1ccccc1 (stereo partly specified),26.4,30.2,24.3,30.7,26.6,25.2,32,27.7,29.3,35.5,27.7,28.3,27.4,26,39.3,27.9,
Cc1cc(NS(=O)(=O)c2ccc(NC(=O)c3ccc4nc5ccccc5c(Nc5ccc(S(N)(=O)=O)cc5)c4c3)cc2)no1,45.3,67.1,94.7,30.8,61.8,43.8,73.3,57.8,> 100,71.3,> 100,61.8,66,72.3,73.4,41,
CSc1cc(Cl)c(C(=O)Nc2ccccc2)cc1S(=O)(=O)n1cc[nH]c1=O,> 100,> 100,> 100,> 100,> 100,> 100,> 100,> 100,> 100,> 100,> 100,> 100,> 100,> 100,> 100,> 100,
COc1cccc(-c2nc(N)c(C#N)c3c2CCS(=O)(=O)c2ccc(C)cc2-3)c1,> 100,> 95.3,54,> 100,> 100,> 56.4,> 100,> 100,> 100,> 100,> 100,87.1,> 100,> 100,5.14,> 63.3,
c1ccc([P+](Cc2ccc(C[P+](c3ccccc3)(c3ccccc3)c3ccccc3)s2)(c2ccccc2)c2ccccc2)cc1,> 100,> 100,> 100,> 100,> 100,> 100,> 100,> 100,> 100,> 100,> 100,> 100,> 100,> 100,> 100,> 100,
CCc1cn(C2CC(CO)C(CO)S2)c(=O)[nH]c1=O (stereo unspecified),> 100,> 100,> 100,> 100,> 100,> 100,> 100,> 100,> 100,> 100,> 100,> 100,> 100,> 100,> 100,> 100,> 100
CC1=NN(c2ccccc2Cl)C2(C1)C(Cl)C(=O)N2c1nc2ccccc2s1 (stereo unspecified),> 100,> 100,89.9,> 100,> 100,> 100,> 100,> 100,> 100,> 100,> 100,91.6,> 100,> 100,49.6,> 100,
CC1(c2cccc(C(F)(F)F)c2)CC(c2cccc(C(F)(F)F)c2)=C(C#N)C(=C(C#N)C#N)N1 (stereo unspecified),32.6,40.7,33.6,31.2,32.4,30.8,41.1,31.7,29.6,41.7,40,38.5,40.2,52.1,30,29,
